According to ChEMBL document CHEMBL1201862, “PubChem BioAssay data set” (2004):
Activity calls are given as the source filed them.

Experiments:
[1] = molecular target: Palmitoyl-protein thioesterase ABHD10, mitochondrial (Mus musculus, UniProt Q6PE15); experiment: Late stage assay provider results from the probe development effort to identify inhibitors of PME-1: fluorescence-based dose response biochemical gel-based competitive Activity-Based Protein Profiling (ABPP) inhibition of ABHD10 Set 2.; assay type: functional
Chain of Palmitoyl-protein thioesterase ABHD10, mitochondrial (Q6PE15 whole entry): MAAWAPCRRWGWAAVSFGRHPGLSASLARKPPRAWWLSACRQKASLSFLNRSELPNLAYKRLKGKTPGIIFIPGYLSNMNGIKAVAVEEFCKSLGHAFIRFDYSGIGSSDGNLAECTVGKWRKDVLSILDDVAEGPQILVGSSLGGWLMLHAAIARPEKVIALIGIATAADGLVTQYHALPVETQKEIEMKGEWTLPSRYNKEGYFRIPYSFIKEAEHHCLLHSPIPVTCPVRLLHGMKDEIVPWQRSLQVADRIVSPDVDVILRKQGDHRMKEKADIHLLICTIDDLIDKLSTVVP

Fatty acid synthase [2] = molecular target: T1, Fatty acid synthase (Homo sapiens, UniProt P49327); experiment: inhibition of human FAS-TE enzyme activity – biochemical, endpoint fluorescence intensity, uHTS hits, dose response (AID 624327); assay type: functional;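 also: fluorescence from hydrolysis of an O-methyl fluorescein acyl ester substrate by the enzyme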
T1 sequence (P49327 whole entry): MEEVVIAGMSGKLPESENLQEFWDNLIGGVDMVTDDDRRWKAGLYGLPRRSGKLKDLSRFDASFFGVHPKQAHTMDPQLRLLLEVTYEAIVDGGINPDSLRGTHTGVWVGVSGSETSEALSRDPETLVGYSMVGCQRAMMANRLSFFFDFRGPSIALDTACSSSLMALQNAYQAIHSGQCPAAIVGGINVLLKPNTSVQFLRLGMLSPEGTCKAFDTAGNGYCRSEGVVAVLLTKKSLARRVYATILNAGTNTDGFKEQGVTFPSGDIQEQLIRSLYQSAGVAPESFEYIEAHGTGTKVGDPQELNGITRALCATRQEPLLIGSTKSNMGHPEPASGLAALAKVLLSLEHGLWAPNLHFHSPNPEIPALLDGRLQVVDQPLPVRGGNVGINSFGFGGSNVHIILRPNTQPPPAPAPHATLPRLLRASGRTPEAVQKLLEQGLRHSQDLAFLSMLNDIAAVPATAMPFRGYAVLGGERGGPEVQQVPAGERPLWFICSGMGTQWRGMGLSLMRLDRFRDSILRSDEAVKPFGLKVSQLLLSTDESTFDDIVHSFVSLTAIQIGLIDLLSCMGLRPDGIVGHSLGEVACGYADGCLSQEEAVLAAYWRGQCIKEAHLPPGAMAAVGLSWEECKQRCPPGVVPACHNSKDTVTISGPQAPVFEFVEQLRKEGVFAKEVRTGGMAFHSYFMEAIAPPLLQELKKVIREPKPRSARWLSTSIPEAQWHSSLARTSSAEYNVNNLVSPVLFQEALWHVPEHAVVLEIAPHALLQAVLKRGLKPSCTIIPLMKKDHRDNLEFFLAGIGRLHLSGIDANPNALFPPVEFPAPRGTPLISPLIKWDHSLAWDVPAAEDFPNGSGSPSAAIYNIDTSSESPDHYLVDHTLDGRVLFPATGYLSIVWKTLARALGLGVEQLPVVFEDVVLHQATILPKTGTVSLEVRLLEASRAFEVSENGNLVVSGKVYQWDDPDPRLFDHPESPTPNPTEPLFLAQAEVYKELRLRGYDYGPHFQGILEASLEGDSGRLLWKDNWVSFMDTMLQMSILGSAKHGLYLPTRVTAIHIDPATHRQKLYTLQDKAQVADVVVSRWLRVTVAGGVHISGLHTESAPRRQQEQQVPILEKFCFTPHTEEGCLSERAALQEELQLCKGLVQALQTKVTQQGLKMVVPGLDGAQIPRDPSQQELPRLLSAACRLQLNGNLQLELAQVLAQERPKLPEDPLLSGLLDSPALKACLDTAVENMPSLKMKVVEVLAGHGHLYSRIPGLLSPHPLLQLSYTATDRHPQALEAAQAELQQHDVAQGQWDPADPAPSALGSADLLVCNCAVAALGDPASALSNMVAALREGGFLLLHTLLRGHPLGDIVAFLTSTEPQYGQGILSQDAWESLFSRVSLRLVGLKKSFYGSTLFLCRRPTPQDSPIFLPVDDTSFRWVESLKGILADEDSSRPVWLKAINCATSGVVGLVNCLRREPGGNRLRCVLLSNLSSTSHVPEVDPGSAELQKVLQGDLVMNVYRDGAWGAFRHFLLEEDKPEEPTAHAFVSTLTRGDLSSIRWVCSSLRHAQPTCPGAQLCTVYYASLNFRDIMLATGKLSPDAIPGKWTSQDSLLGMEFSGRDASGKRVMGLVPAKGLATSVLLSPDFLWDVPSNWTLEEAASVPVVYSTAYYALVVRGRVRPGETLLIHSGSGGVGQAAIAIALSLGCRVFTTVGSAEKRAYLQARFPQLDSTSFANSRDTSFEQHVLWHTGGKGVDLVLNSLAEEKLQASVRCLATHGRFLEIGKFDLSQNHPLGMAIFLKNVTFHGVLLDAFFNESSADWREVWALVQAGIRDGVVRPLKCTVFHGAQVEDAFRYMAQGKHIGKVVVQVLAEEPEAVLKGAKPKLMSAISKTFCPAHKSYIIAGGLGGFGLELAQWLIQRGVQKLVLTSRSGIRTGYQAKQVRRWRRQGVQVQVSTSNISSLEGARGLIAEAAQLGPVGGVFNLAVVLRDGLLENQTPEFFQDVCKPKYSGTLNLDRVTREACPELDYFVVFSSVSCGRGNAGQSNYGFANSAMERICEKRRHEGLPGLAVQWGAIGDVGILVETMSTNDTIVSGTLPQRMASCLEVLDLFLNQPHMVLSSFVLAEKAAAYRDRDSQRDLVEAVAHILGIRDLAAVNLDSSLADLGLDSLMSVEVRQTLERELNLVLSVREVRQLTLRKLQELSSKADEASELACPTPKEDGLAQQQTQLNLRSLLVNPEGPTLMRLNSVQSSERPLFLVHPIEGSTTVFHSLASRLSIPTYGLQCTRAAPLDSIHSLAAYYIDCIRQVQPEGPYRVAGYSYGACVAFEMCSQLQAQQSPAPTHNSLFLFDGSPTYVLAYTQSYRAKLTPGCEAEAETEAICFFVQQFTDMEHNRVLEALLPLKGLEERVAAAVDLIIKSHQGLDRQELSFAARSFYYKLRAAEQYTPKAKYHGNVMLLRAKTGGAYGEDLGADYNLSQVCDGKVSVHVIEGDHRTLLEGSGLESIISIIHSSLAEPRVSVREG

Fatty acid synthase [3] = molecular target: T1, Fatty acid synthase; experiment: inhibition of human FAS-TE enzyme activity – biochemical, kinetic fluorescence intensity, dose response (AID 624326); assay type: functional;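 also: rate of fluorescence rise from hydrolysis of a fluorogenic O-methyl fluorescein ester substrate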
[4] = molecular target: T2, Corticotropin-releasing factor receptor 2/Corticotropin-releasing factor-binding protein (Homo sapiens, UniProt P24387+Q13324); experiment: Dose Response confirmation of uHTS hits for small molecule antagonists of the CRF-binding protein and CRF-R2 receptor complex.; assay type: functional; conditions: read-out: IC50_Mean
T2 sequence (Q13324 whole entry): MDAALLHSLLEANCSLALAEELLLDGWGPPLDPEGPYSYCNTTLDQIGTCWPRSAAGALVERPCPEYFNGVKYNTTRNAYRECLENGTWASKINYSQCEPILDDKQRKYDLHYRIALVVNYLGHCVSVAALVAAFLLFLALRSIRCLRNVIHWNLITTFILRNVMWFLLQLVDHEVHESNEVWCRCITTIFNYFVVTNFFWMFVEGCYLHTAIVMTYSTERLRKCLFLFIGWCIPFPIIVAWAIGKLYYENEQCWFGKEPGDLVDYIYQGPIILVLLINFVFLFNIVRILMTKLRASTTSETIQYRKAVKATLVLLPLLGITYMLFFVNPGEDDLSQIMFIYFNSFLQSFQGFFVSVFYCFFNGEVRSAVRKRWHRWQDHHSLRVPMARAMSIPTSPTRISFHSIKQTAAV
T2 sequence (P24387 whole entry): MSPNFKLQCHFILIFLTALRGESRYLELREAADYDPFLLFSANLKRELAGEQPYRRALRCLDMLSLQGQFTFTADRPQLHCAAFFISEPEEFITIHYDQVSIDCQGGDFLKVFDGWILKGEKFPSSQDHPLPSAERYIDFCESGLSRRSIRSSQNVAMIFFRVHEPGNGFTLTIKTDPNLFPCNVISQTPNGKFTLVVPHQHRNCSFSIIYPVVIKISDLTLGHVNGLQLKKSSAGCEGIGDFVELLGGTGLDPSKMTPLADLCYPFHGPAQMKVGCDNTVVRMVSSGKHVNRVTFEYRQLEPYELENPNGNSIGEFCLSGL

[5] = molecular target: T2, Corticotropin-releasing factor receptor 2/Corticotropin-releasing factor-binding protein; experiment: activators of CRF receptor 2 with binding protein – uHTS hits, confirmation (AID 602473); assay type: functional; conditions: read-out: EC50_Mean
[6] = blockers of CRF-binding protein–CRF-R2 complex – cell-based, uHTS hits, 384-well, dose response (AID 651639); assay type: functional, Homo sapiens; conditions: read-out: IC50_Mean
[7] = molecular target: Adenosylmethionine-8-amino-7-oxononanoate aminotransferase (Mycobacterium tuberculosis, UniProt P9WQ81); experiment: Mycobacterium tuberculosis BioA enzyme inhibitor Measured in Biochemical System Using Plate Reader - 2163-02_Inhibitor_Dose_CherryPick_Activity.; assay type: functional, Mycobacterium tuberculosis UT205
INS1 = experiment: INS-1E survival protection against cytokine death – cell-based, luminescence, retest, dose response (AID 449756); assay type: functional; conditions: Rattus norvegicus;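 also: cell death triggered by IL-1 beta plus TNF-alpha plus IFN-gamma mixture; protective hits raise ATP signal compared with cytokine alone wells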
[8] = molecular target: T3, Sentrin-specific protease 8 (Homo sapiens, UniProt Q96LD8); assay type: functional
T3 sequence (Q96LD8 whole entry): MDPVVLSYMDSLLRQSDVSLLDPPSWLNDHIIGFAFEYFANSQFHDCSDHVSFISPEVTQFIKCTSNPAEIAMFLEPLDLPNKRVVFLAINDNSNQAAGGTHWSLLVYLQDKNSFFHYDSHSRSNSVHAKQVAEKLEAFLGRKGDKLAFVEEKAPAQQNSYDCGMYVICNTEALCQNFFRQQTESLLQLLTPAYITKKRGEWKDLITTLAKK

[9] = molecular target: T3, Sentrin-specific protease 8; assay type: functional; remark: listed apart in the source
[10] = molecular target: Mitochondrial peptide methionine sulfoxide reductase (Bos taurus, UniProt P54149); experiment: Absorbance-based biochemical high throughput dose response assay for activators of Methionine sulfoxide reductase A (MsrA).; assay type: functional
Chain of Mitochondrial peptide methionine sulfoxide reductase (P54149 whole entry, the tested form may be a part): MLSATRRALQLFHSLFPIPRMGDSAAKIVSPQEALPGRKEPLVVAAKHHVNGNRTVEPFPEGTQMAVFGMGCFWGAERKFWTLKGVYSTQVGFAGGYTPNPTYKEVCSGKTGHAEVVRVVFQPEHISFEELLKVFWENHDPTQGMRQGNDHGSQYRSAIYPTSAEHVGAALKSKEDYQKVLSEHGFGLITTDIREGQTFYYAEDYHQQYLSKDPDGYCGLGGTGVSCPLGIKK

[11] = Fluorescence-based cell-based high throughput dose response assay for inhibitors of the interaction of nucleotide-binding oligomerization domain containing 2 (NOD2) and the receptor-interacting serine-threonine kinase 2 (RIPK2).; assay type: functional; conditions: Homo sapiens
Beta Lactamase = Beta Lactamase (Pseudomonas aeruginosa, UniProt Q932Y6); experiment: BLA reporter interference, concentration series – BLA reporter cells, FRET fluorescence, artefact control for NOD2-RIPK2 interaction inhibitor project, dose response (AID 651552); assay type: functional, cell-based
Chain of Beta Lactamase (Q932Y6 whole entry): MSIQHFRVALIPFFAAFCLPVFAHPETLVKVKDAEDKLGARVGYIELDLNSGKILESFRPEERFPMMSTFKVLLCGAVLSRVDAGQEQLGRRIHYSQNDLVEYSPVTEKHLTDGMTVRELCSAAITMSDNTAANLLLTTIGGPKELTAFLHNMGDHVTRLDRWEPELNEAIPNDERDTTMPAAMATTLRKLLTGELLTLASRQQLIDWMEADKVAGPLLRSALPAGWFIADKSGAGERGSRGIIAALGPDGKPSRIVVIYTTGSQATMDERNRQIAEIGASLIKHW

[12] = molecular target: Tyrosyl-DNA phosphodiesterase 2 (Homo sapiens, UniProt O95551); experiment: potency against TDP2 phosphodiesterase activity – biochemical, epi absorbance, IC50, dose response (AID 743297)
Melanocortin receptor 4 [13] = molecular target: T4, Melanocortin receptor 4 (Homo sapiens, UniProt P32245); experiment: inhibitors of MC4R cAMP signaling – cell-based, TR-FRET, biased antagonists, dose response (AID 602298); assay type: functional;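 also: antagonist potency against agonist-stimulated cAMP production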
T4 sequence (P32245 whole entry): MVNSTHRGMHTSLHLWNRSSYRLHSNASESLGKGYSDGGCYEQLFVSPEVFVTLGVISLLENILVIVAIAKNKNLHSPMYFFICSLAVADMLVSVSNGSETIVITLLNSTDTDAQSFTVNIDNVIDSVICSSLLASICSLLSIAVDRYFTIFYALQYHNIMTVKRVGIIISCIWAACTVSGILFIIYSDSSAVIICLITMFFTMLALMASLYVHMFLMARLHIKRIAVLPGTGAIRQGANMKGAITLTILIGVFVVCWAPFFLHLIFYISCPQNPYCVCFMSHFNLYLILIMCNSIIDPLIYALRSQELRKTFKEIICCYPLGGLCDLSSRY

[14] = reduction of Shn3 3'UTR-driven luciferase in osteoblasts – cell-based, Clone20 osteoblasts, firefly luciferase, cherry-picked, dose response (AID 624132); assay type: functional;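 also: firefly luciferase luminescence from reporter carrying the Shn3 3'UTR in osteoblasts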
Melanocortin receptor 4 [15] = molecular target: T4, Melanocortin receptor 4; assay type: functional, cell-based
[16] = loss of viability in HepG2 cells – cell-based, CellTiter-Glo, cherry-picked, cytotoxicity control for Shn3 inhibitor project, dose response (AID 624134); assay type: functional
[17] = non-specific 3'UTR reporter inhibition in Clone20-Shn3RL – cell-based, Renilla luciferase, cherry-picked, counter-screen for Shn3 inhibitor project, dose response (AID 624133); assay type: functional
[18] = cAMP pathway inhibition in counterscreen cell line – TR-FRET cAMP detection, counter-screen for MC4R biased antagonist project, dose response (AID 602305); assay type: functional, cell-based;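 also: U2OS cells stimulated with forskolin near its EC80 as the cAMP inducer; potency is for inhibition of forskolin-stimulated cAMP signaling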
[19] = molecular target: Hepatocyte nuclear factor 4-alpha (Homo sapiens, UniProt P41235); assay type: functional, cell-based;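 also: biochemical luminescence-based dose-response counterscreen measuring inhibition of HNF4 dimerization, run alongside a screen for blockers of ABHD5–perilipin-5 interaction; split luciferase complementation of HNF4 fusion proteins in cell lysate measuring dimerization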
Chain of Hepatocyte nuclear factor 4-alpha (P41235 whole entry, the tested form may be a part): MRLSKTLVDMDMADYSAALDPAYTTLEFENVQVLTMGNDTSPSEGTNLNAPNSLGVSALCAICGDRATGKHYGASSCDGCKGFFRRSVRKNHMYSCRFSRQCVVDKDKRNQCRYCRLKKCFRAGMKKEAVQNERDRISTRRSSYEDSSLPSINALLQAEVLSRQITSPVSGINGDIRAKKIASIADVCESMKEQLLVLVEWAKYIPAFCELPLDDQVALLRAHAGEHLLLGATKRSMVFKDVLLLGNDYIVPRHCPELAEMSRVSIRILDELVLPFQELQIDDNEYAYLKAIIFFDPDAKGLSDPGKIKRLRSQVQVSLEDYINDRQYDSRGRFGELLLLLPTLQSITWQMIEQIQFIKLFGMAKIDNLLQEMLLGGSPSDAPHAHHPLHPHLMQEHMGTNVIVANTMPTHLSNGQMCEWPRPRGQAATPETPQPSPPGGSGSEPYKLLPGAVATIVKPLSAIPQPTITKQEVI

[20] = activation of miR-122 Renilla sensor silencing – cell-based, Huh7 psiCHECK-miR122, Renilla luciferase, cherry-picked, dose response (AID 651956); assay type: functional;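 also: huh7 hepatoma cells stably carrying a psiCHECK-2 miR-122 sensor plasmid; renilla luciferase signal reporting endogenous miR-122 activity after 48 h compound exposure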
[21] = molecular target: T5, Low molecular weight phosphotyrosine protein phosphatase (Homo sapiens, UniProt P24666); assay type: functional; conditions: read-out: IC50_Mean
T5 sequence (P24666 whole entry): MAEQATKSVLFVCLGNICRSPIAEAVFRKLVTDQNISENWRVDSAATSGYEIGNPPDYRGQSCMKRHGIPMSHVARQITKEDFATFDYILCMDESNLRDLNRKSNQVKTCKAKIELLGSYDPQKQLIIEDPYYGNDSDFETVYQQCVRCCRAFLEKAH

[22] = molecular target: T5, Low molecular weight phosphotyrosine protein phosphatase; assay type: functional; conditions: read-out: IC50_Mean; remark: listed apart in the source
[23] = Luminescence Cell-Based Dose Confirmation HTS to Identify Activators of 5'UTR Stem-Loop Driven Alpha-Synuclein mRNA Translation in H4 Neuroglioblastoma Cells. [Related pubchem assays: 1829 (Project Summary), 1814 (Primary HTS)]; assay type: functional
[24] = Luminescence Cell-Based Dose Response HTS to Identify Activators of Luciferase Translation or Activity in H4 […] Cells. [Related pubchem assays: 1829 (Project Summary), 1814 (Primary HTS)]; assay type: functional
BJ [25] = experiment: BJ-TERT fibroblast viability loss – cell-based, RAS-independent, luminescence, dose response (AID 1933); assay type: functional; conditions: Homo sapiens
cells [26] = assay type: functional, cell-based
H4 = experiment: Luminescence Cell-Based Dose Response HTS to Identify Activators of 5'UTR Stem-Loop Driven Prion Protein mRNA Translation in H4 Neuroglioblastoma Cells. [Related pubchem assays: 1829 (Project Summary), 1814 (Primary HTS)]; assay type: functional; conditions: Homo sapiens
BJ [27] = experiment: cells; assay type: functional, cell-based; conditions: Homo sapiens
[28] = Trypanosoma cruzi growth suppression in host cells – NIH3T3 host cells, beta-gal luminescence, confirmation (AID 2044); assay type: functional, cell-based;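 also: intracellular parasites grown in NIH/3T3 mouse fibroblasts as host cells; luminescent beta-galactosidase reporter signal from transgenic T. cruzi replicating inside host cells; inhibitors lower the luminescence signal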
cells [29] = assay type: functional, cell-based; remark: listed apart in the source
[30] = NIH3T3 cell viability loss – ATP luminescence, mouse fibroblasts, counter-screen, dose response (AID 2010); assay type: functional, cell-based;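 also: cells exposed to compound for about 90 hours before reading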
BJ [31] = experiment: BJ-TERT-LT-ST fibroblast viability loss – cell-based, RAS-independent, luminescence, dose response (AID 1935); assay type: functional; conditions: Homo sapiens;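 also: BJ fibroblasts immortalized with TERT plus LT and ST oncogenes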
[32] = DRD fibroblast viability loss – cell-based, non-viral oncogenic, luminescence, dose response (AID 1934); assay type: functional; conditions: Homo sapiens
[33] = cytotoxicity toward MDA-MB-231 breast cancer cells – cell-based, CellTiter-Glo luminescence, cherry-pick, cytotoxicity control for RAD54 inhibitor project, dose response (AID 651692); assay type: functional
[34] = molecular target: DNA repair and recombination protein RAD54-like (Homo sapiens, UniProt Q92698); experiment: RAD54 Holliday junction migration blockers – biochemical, fluorescence, cherry-picked samples, dose series, confirmation (AID 651657); assay type: functional
Chain of DNA repair and recombination protein RAD54-like (Q92698 whole entry): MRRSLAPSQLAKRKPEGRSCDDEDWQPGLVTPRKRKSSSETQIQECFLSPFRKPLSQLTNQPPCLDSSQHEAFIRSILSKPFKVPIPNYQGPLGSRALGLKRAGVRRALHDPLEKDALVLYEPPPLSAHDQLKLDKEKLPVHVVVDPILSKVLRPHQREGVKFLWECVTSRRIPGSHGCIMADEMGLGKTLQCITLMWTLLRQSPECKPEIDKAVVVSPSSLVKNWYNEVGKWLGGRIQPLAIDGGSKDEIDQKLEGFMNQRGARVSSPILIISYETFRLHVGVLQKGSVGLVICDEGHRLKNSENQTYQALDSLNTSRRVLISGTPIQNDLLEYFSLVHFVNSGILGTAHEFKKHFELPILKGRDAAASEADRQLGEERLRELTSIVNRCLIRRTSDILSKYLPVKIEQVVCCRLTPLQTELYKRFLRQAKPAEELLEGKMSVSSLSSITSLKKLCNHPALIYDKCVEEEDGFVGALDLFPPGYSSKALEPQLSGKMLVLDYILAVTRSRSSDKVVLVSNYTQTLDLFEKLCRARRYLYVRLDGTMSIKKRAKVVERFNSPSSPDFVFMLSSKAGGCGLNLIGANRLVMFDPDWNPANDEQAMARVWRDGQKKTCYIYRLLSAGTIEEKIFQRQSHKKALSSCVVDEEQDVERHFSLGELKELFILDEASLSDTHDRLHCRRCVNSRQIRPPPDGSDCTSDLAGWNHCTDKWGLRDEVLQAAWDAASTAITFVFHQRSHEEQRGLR

[35] = molecular target: T6, DNA repair protein RAD52 homolog (Homo sapiens, UniProt P43351); assay type: functional, biochemical
T6 sequence (P43351 whole entry): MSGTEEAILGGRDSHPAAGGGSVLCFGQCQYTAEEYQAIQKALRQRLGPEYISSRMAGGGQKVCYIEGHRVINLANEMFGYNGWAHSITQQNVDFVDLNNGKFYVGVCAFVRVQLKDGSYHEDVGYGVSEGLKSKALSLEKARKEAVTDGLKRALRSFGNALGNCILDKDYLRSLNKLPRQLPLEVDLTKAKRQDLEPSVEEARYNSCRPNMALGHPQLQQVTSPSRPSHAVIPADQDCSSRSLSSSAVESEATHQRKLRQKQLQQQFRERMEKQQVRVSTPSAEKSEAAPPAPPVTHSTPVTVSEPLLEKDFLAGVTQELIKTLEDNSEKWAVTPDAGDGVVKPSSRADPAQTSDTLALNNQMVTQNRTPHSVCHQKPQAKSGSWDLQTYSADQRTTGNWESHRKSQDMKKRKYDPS

CC[C@@]1(c2cccc(C)c2)C(=O)N(C(=O)OC)N1C(=O)OC
IC50 [1]: 0.413 µM (active) | IC50 (Fatty acid synthase [2]): 6.22 µM (active) | IC50 (Fatty acid synthase [3]): 5.96 µM (active)

CCOc1cc(-c2cn(S(=O)(=O)c3cccc4nsnc34)nc2N)cc(OCC)c1OCC
IC50 [4]: 21.1 µM (active) | EC50 [5]: > 53 µM (inactive) | IC50 [6]: > 20 µM (inactive)

CCCC(=O)Nc1cccc(NC(=O)c2ccc(C)c([N+](=O)[O-])c2)c1
AC50 [7]: 1.96 µM (active)

COc1ccccc1N1C(C)=CC(=C(C#N)c2nc3ccccc3s2)C=C1C
AC50 (INS1): 5.19 µM (active) | EC50 [5]: 16.1 µM (active) | IC50 [8]: 4.86 µM (active) | IC50 [9]: 9.58 µM (active)

CC1OC2CC(=O)OC2C2=C1C(=O)c1c(O)cccc1C2=O (centres undefined)
EC50 [10]: 21 µM (inactive) | IC50 [11]: 2.14 µM (active) | IC50 (Beta Lactamase): 38.2 µM (inactive) | IC50 [12]: 12 µM (inactive)

CC(O)CC(=O)OC[C@]12CC[C@H]3[C@@](C)(CC[C@H]4C(C)(C)CCC[C@]34C)[C@@H]1CC(C1=CC(=O)OC1O)O2 (some centres undefined)
IC50 (Melanocortin receptor 4 [13]): 22 µM (inactive) | AC50 [14]: 3.75 µM (active) | EC50 (Melanocortin receptor 4 [15]): > 89.2 µM (inactive) | AC50 [16]: 22.1 µM (active) | AC50 [17]: 5.5 µM (active) | IC50 [18]: > 64.6 µM (inactive) | IC50 [19]: 3.53 µM (active)

C/C=C/c1ccc([C@H]2[C@H](CO)N[C@H]2CN(CC(C)C)C(=O)c2ccccn2)cc1
AC50 [20]: 5.62 µM (active)

Oc1c(/C=N/c2ccc(Cl)cc2)cnn1-c1cccc(Cl)n1
IC50 [21]: 15.4 µM (active) | IC50 [22]: 17.1 µM (active)

c1ccc2c(NCCc3c[nH]c4ccccc34)c3ccccc3nc2c1
EC50 [23]: > 120 µM (not active) | EC50 [24]: 4.86 µM (active) | EC50 (BJ [25]): 4.9 µM (active) | EC50 (cells [26]): > 350 µM (not active) | EC50 (H4): > 120 µM (not active) | EC50 (BJ [27]): 8.56 µM (inconclusive) | EC50 [28]: 1.43 µM (active) | EC50 (cells [29]): 29.3 µM (active) | EC50 [30]: 11.9 µM (active) | EC50 (BJ [31]): 6.42 µM (inconclusive) | EC50 [32]: 7.86 µM (active) | AC50 [33]: 33.1 µM (active) | AC50 [34]: 3.17 µM (active) | AC50 [35]: 1.41 µM (active)
